In one data set the test system is HepG2. Briefly: Cytotoxicity against human HepG2 cells assessed as reduction in cell viability incubated for 48 hrs by MTT assay. It is filed as functional, cell-based. The following applies: HepG2, 48 h. Background: Tetrazolium dyes change colour on reduction, which living cells bring about.
For another data set, the system named is HCT-116. Briefly: Cytotoxicity against human HCT-116 cells assessed as reduction in cell viability incubated for 48 hrs by MTT assay. To be noted: HCT-116, 48 h. It is filed as functional, cell-based.
Data set [1] in a line: Cytotoxicity against human NCM460 cells assessed as reduction in cell viability incubated for 48 hrs by MTT assay. The format is toxicity, cell-based.

The values that follow come from ChEMBL document CHEMBL5338744, “Development and Characterization of Benzoselenazole Derivatives as Potent and Selective c-MYC Transcription Inhibitors” (J Med Chem, 2023).

Broadly, the IC50 is the midpoint of a concentration-inhibition curve. On to `CN(C)CCCn1c2ccccc2c2cc(/C=C/c3nc4ccccc4[se]3)ccc21`, for which the values for the IC50 in the data set on HepG2 and in the data set on HCT-116 were above 100 µM and 34.4 µM, respectively. Besides, in data set [1], the 50% inhibitory concentration (IC50) at 48 h is above 100 µM.
In the case of `CN(C)CCCn1c2ccccc2c2cc(/C=C/c3[se]c4ccccc4[n+]3C)ccc21`, the IC50 with HepG2 was determined as 26.2 µM; with HCT-116 it was 15 µM. Also, the concentration for half-maximal inhibition (IC50) at 48 h in data set [1] was 87.7 µM.
The like results for `CCn1c2ccccc2c2cc(/C=C/c3sc4ccc5ccccc5c4[n+]3C)ccc21` were, in that order, 8.3 µM, 2.5 µM and 26.1 µM.
The like results for `CCn1c2ccccc2c2cc(/C=C/c3nc4c(ccc5ccccc54)[se]3)ccc21` were, in that order, above 100 µM, above 100 µM and above 100 µM.
For `CN(C)CCCn1c2ccccc2c2cc(/C=C/c3nc4ccccc4s3)ccc21` the same measures were 21.3 µM, 42.9 µM and above 100 µM.
With `C(=C\c1nc2ccccc2o1)/c1ccc2c(c1)c1ccccc1n2Cc1ccccc1`, the IC50 in the data set with HepG2 was 5.7 µM; in the data set with HCT-116, 25.9 µM. The IC50 at 48 h in data set [1] is above 100 µM.
The like results for `CCn1c2ccccc2c2cc(/C=C/c3nc4ccccc4[se]3)ccc21` were, in that order, 13.4 µM, 19.5 µM and above 100 µM.
The like results for `C[n+]1c(/C=C/c2ccc3c(c2)c2ccccc2n3Cc2ccccc2)sc2ccccc21` were, in that order, 7.4 µM, 4.1 µM and 45.6 µM.
As to `CCn1c2ccccc2c2cc(/C=C/c3nc4ccccc4s3)ccc21`, the IC50 in the data set with HepG2 is 52.1 µM; with HCT-116, above 100 µM. In addition, the IC50 at 48 h in data set [1] is above 100 µM.
Turning to `CCn1c2ccccc2c2cc(/C=C/c3nc4ccccc4o3)ccc21`, the half-inhibitory concentration (IC50) in the data set on HepG2 came to 37.7 µM; in the data set with HCT-116, 32.1 µM. Further, the half-inhibitory concentration (IC50) at 48 h in data set [1] was above 100 µM.
For `CCn1c2ccccc2c2cc(/C=C/c3[se]c4ccc5ccccc5c4[n+]3C)ccc21` the same measures were 4.5 µM, 9 µM and 42.5 µM.
For `C[n+]1c(/C=C/c2ccc3c(c2)c2ccccc2n3Cc2ccccc2)oc2ccccc21` the same measures were 96.2 µM, 32.3 µM and above 100 µM.
